Assay [1] deals with DNA. The following applies: background statement, cited from earlier work; for DNA sequence preference: result in words; for Kd: read-out: dissociation constants (binding to DNA).
The subject of assay [2] is Aspergillus niger (IMI 1745). Nature of the assay: MIC, Aspergillus niger. The assay is classed as cell-based. The protocol:
(§1) The effects of compounds of the invention in relation to inhibiting the growth of various microorganisms was determined using methods known to those skilled in the art, for example in vitro methods as described in J. Med. Chem. 47, 2133-2156 (2004) and in vivo methods as described in J. Med. Microbiol. 46, 208-213 (1997), the disclosures of which documents are hereby incorporated by reference. In particular, minimum inhibitory concentrations (MICs) against microorganisms (e.g. S. Aureus, Streptococcus faecalis, Aspergillus niger, Candida albicans or Mycobacterium fortuitum) for compounds of the invention may be measured using procedures such as those described in A. J. Drummond and […] development of microbiological methods for phytochemical screening” Recent Res. Devel. […] The test wells on each 96 well microtitre plate were initially inoculated with culture medium (100 μL) using Mueller-Hinton Broth for antibacterial assays and Sabouraud Broth for antifungal assays. A solution of each test sample (100 μL) was added to one row of each plate and a series of doubling dilutions made for successive rows. Incubation was at 37° C. for antibacterial assay and 25° C. for antifungal assay. […] From the observed pattern of colour, the MIC was determined. All tests included sterility and growth controls.

Assay [3] concerns Mycobacter fortuitum (NCTC 10394). Briefly: MIC, Mycobacter fortuitum. The assay is classed as cell-based. Here is the method: as §1
In assay [4] the test system is clinical strains of S. aureus in the Scottish Clinical Isolates Collection. Briefly: MIC against collected clinical strains of S. aureus (BSAC03/04/05 (1)-(10)). The assay is classed as cell-based, Staphylococcus aureus. The source says:
(§2) In particular, minimum inhibitory concentrations (MICs) against microorganisms (e.g. S. Aureus, Streptococcus faecalis, Aspergillus niger, Candida albicans or Mycobacterium fortuitum) for compounds of the invention may be measured using procedures such as those described in A. J. Drummond and R. D. Waigh “The development of microbiological methods for phytochemical screening” Recent Res. Devel. Phytochem. 4, 143-152 (2000), the disclosures of which document are hereby incorporated by reference.
(§3) Sample dilutions were typically prepared by dissolving the test sample (2 mg) in sterile water (10 mL) to provide a working concentration of 200 μg/ml. The test wells on each 96 well microtitre plate were initially inoculated with culture medium (100 μL) using Mueller-Hinton Broth for antibacterial assays and Sabouraud Broth for antifungal assays. A solution of each test sample (100 μL) was added to one row of each plate and a series of doubling dilutions made for successive rows. Incubation was at 37° C. for antibacterial assay and 25° C. for antifungal assay. […] From the observed pattern of colour, the MIC was determined. All tests included sterility and growth controls.
BSAC03/04/05 (1)-(10) refer to collected clinical strains of S. aureus in the Scottish Clinical Isolates Collection.

The test system of assay [5] is Staphylococcus aureus Strain 2 (NCTC 6571). Nature of the assay: MIC, Staphylococcus aureus Strain 2. The assay is classed as cell-based. The protocol: as §1
Assay [6] concerns Streptococcus faecalis (NCTC 775). Nature of the assay: MIC, Streptococcus faecalis. The assay is classed as cell-based. Here is the method:
as §1

In assay [7] the test system is Candida albicans (NCPF3179). Briefly: MIC, Candida albicans. It is filed as cell-based. Here is the method: as §1
Assay [8] deals with Staphylococcus aureus Strain 1 (BSAC04(1)) (Clinical isolate from Glasgow Royal Infirmary). Briefly: MIC, Staphylococcus aureus Strain 1. The assay is classed as cell-based. Here is the method: The effects of compounds of the invention in relation to inhibiting the growth of various microorganisms was determined using methods known to those skilled in the art, for example in vitro methods as described in J. Med. Chem. 47, 2133-2156 (2004) and in vivo methods as described in J. Med. Microbiol. 46, 208-213 (1997), the disclosures of which documents are hereby incorporated by reference.
as §2, §3

The mark [9] stands for this setting: value in parentheses, na = not active.

≈ marks a conversion by molar mass, not a printed value.

As for `Cn1cc(NC(=O)c2cc(NC(=O)CN=C(N)N)cn2C)cc1C(=O)NCCC(=N)N` [Netropsin, netropsin], in assay [1], the DNA sequence preference result was “preference for AT-rich regions of DNA” and the Kd was approximately 10 µM.
On to `Cn1cc(NC(=O)c2cc(NC(=O)c3cc(NC=O)cn3C)cn2C)cc1C(=O)NCCC(=N)N` [distamycin], for which, in assay [1], the DNA sequence preference entry is “preference for AT-rich regions of DNA” and the Kd was approximately 10 µM.
`COc1ccc(/C=C/c2ccc(C(=O)Nc3cc(C(=O)Nc4cc(C(=O)NCCN5CCOCC5)n(C)c4)n(C)c3)cn2)cc1` [Example 22]: in assay [2] (setting [9]), the “Minimum inhibitory concentrations (MICs), A. niger” value worked out at 50 µg/mL (≈ 81.7 µM). For the same molecule, the MIC in assay [2] (value outside parentheses, read-out: Minimum inhibitory concentrations (MICs), A. niger) is listed as 69 µM (≈ 42.2 µg/mL); in assay [3] (value outside parentheses, read-out: Minimum inhibitory concentrations (MICs), M. fortuitum) it was 69 µM (≈ 42.2 µg/mL); in assay [5] (value outside parentheses, read-out: Minimum inhibitory concentrations (MICs), S. aureus 2), 17.2 µM (≈ 10.5 µg/mL); in assay [6] (value outside parentheses, read-out: Minimum inhibitory concentrations (MICs), St. faecalis) it was 8.6 µM (≈ 5.26 µg/mL); in assay [7] (value outside parentheses, read-out: Minimum inhibitory concentrations (MICs), C. albicans), 34 µM (≈ 20.8 µg/mL); in assay [8] (value outside parentheses, read-out: Minimum inhibitory concentrations (MICs), S aureus 1) it was 0.69 µM (≈ 0.422 µg/mL). In assay [3] (setting [9]), the “Minimum inhibitory concentrations (MICs), M. fortuitum” value stood at 50 µg/mL (≈ 81.7 µM). The “Minimum inhibitory concentrations (MICs)” value in assay [4] (S. aureus BSAC culture year 2003 number 1) amounted to 0.5 µg/mL (≈ 0.817 µM); in assay [4] (S. aureus BSAC culture year 2003 number 2), 4 µg/mL (≈ 6.54 µM); in assay [4] (S. aureus BSAC culture year 2003 number 3), 0.5 µg/mL (≈ 0.817 µM); in assay [4] (S. aureus BSAC culture year 2003 number 4) it was 0.5 µg/mL (≈ 0.817 µM); in assay [4] (S. aureus BSAC culture year 2003 number 5) it was 0.5 µg/mL (≈ 0.817 µM); in assay [4] (S. aureus BSAC culture year 2003 number 6) it was 1 µg/mL (≈ 1.63 µM). Also, the “Minimum inhibitory concentrations (MICs)” value was 0.5 µg/mL (≈ 0.817 µM) in assay [4] (S. aureus BSAC culture year 2003 number 7); 0.5 µg/mL (≈ 0.817 µM) in assay [4] (S. aureus BSAC culture year 2003 number 8); 2 µg/mL (≈ 3.27 µM) in assay [4] (S. aureus BSAC culture year 2003 number 9); 0.5 µg/mL (≈ 0.817 µM) in assay [4] (S. aureus BSAC culture year 2003 number 10); 0.5 µg/mL (≈ 0.817 µM) in assay [4] (S. aureus BSAC culture year 2004 number 1); 4 µg/mL (≈ 6.54 µM) in assay [4] (S. aureus BSAC culture year 2004 number 2). Further, the “Minimum inhibitory concentrations (MICs)” value in assay [4] (S. aureus BSAC culture year 2004 number 3) amounted to 2 µg/mL (≈ 3.27 µM); in assay [4] (S. aureus BSAC culture year 2004 number 4) it was 2 µg/mL (≈ 3.27 µM); in assay [4] (S. aureus BSAC culture year 2004 number 5), 0.5 µg/mL (≈ 0.817 µM); in assay [4] (S. aureus BSAC culture year 2004 number 6), 0.5 µg/mL (≈ 0.817 µM); in assay [4] (S. aureus BSAC culture year 2004 number 7), 1 µg/mL (≈ 1.63 µM); in assay [4] (S. aureus BSAC culture year 2004 number 8), 1 µg/mL (≈ 1.63 µM). Also, the “Minimum inhibitory concentrations (MICs)” value was 2 µg/mL (≈ 3.27 µM) in assay [4] (S. aureus BSAC culture year 2004 number 9); 1 µg/mL (≈ 1.63 µM) in assay [4] (S. aureus BSAC culture year 2004 number 10); 2 µg/mL (≈ 3.27 µM) in assay [4] (S. aureus BSAC culture year 2005 number 1); 8 µg/mL (≈ 13.1 µM) in assay [4] (S. aureus BSAC culture year 2005 number 2); 2 µg/mL (≈ 3.27 µM) in assay [4] (S. aureus BSAC culture year 2005 number 3); 0.5 µg/mL (≈ 0.817 µM) in assay [4] (S. aureus BSAC culture year 2005 number 4). The “Minimum inhibitory concentrations (MICs)” value in assay [4] (S. aureus BSAC culture year 2005 number 5) is 4 µg/mL (≈ 6.54 µM); in assay [4] (S. aureus BSAC culture year 2005 number 6), 0.5 µg/mL (≈ 0.817 µM); in assay [4] (S. aureus BSAC culture year 2005 number 7), 0.5 µg/mL (≈ 0.817 µM); in assay [4] (S. aureus BSAC culture year 2005 number 8), 4 µg/mL (≈ 6.54 µM); in assay [4] (S. aureus BSAC culture year 2005 number 9), 2 µg/mL (≈ 3.27 µM); in assay [4] (S. aureus BSAC culture year 2005 number 10), 1 µg/mL (≈ 1.63 µM). Also, in assay [4] (result in words), the “microbicidal activity against a number of different strains of Staphylococcus aureus” value is given as “displayed microbicidal activity”. Besides, the “Minimum inhibitory concentrations (MICs), S. aureus 2” value in assay [5] (setting [9]) was determined as 12.5 µg/mL (≈ 20.4 µM). In assay [6] (setting [9]), the “Minimum inhibitory concentrations (MICs), St. faecalis” value was 6.3 µg/mL (≈ 10.3 µM). Also, the “Minimum inhibitory concentrations (MICs), C. albicans” value in assay [7] (setting [9]) came out at 25 µg/mL (≈ 40.9 µM). The “Minimum inhibitory concentrations (MICs), S aureus 1” value in assay [8] (setting [9]) is 0.5 µg/mL (≈ 0.817 µM).

The values above are taken from patent US8012967B2, “Minor groove binders” (University of Strathclyde, priority 2006, dated 2011).
